Source: patent US20240076297A1, “ADENOSINE A2A AND A2B RECEPTOR DUAL ANTAGONISTS FOR IMMUNO-ONCOLOGY” (Merck Sharp & Dohme LLC, priority 2020, published 2024)

What was measured:
[1] = target: T1, human A2A adenosine receptor (Homo sapiens (Human), UniProt P29274); experiment: A2A binding affinity using SPA, Method (B); settings: [3H] SCH58261, A2A receptor-expressing membranes
Source text: (§1) Method (A) describes the procedure used to measure A2A binding affinity using radioligand binding. Method (B) describes the procedure used to measure A2A binding affinity using SPA technology. The method used to measure A2B binding affinity is also described below. The method used to determine the A2A IC50 value reported for each compound in the table is indicated next to the reported value. The A2B IC50 value measured using the A2B binding affinity assay is shown in the table next to the compound under the corresponding A2A value.
The A2A receptor affinity binding assay measured the amount of binding of a tritiated ligand with high affinity for the A2A adenosine receptor to membranes made from HEK293 or CHO cells recombinantly expressing the human A2A adenosine receptor, in the presence of varying concentrations of a compound of the invention. The data were generated using either filtration binding or a homogenous scintillation proximity assay (SPA).
Method (B): Measurement of A2A Binding Affinity Using SPA
Binding affinity using SPA was conducted as follows. Test compounds (50 nL) were dispensed into individual wells of a 384-well OptiPlate™ well (Perkin Elmer) by Echo® acoustic liquid transfer (Labcyte). 20 μL of 1.25 nM [^3H] SCH58261 ((7-(2-phenylethyl)-5-amino-2-(2-furyl)-pyrazolo-[4,3-e]-1,2,4-triazolo[1,5-c]pyrimidine)) in DPBS assay buffer (Dulbecco's phosphate buffered saline without calcium and magnesium, ThermoFisher Scientific, Cat. No. A1285601) supplemented with 10 mM MgCl2 was added. A2A receptor-expressing membranes were incubated with 20 μg/mL adenosine deaminase (Roche, Cat. No. 10 102 105 001) for 15 min at room temperature. The receptor-expressing membranes were then combined with wheat germ agglutinin-coated yttrium silicate SPA beads (GE Healthcare, Cat. No. RPNQ0023) in a ratio of 1:1000 (w/w) and incubated for 30 min at room temperature. 30 μL of the membrane/bead mixture (0.25 μg and 25 μg per well respectively) were added to the 384-well OptiPlate™ well. To define total and non-specific binding, wells containing 1% DMSO or 1 μM CGS15943 (Tocris Bioscience, Cat. No. 1699) respectively were also included in the experiment. The plate was incubated for 1 h at room temperature with agitation. The assay plate was then incubated for an h to allow the beads to settle before data were collected using a TopCount® (Perkin Elmer) scintillation counter. After normalization to total and non-specific binding, the percent effect at each compound concentration was calculated. The plot of percent effect versus the log of compound concentration was analyzed electronically using a 4-parameter logistic fit based on the Levenberg-Marquardt algorithm to generate IC50 values.

[2] = target: human A2B adenosine receptor (Homo sapiens (Human), UniProt P29275); experiment: A2B binding affinity, radioligand filtration binding assay; settings: HEK293 membranes expressing human A2B, tritiated proprietary antagonist
Sequence of human A2B adenosine receptor (P29275 whole entry): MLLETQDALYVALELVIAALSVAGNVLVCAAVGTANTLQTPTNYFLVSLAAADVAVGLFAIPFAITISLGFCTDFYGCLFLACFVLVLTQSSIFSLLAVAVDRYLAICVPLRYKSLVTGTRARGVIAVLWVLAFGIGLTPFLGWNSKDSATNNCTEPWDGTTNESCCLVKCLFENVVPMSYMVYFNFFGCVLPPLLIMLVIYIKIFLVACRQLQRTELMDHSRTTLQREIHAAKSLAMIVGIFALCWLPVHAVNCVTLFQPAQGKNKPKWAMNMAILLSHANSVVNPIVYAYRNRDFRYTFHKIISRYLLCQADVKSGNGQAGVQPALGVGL
Source text: as §1
Measurement of A2B Binding Affinity
The reported affinity of the compounds of the invention for the human A2B adenosine receptor was determined experimentally using a radioligand filtration binding assay. This assay measures the amount of binding of a tritiated proprietary A2B receptor antagonist, in the presence and absence of a compound of the invention, to membranes made from HEK293 cells recombinantly expressing the human A2B adenosine receptor (Perkin Elmer, Cat. No. ES-013-C).
148 μL (135 μg/mL) membranes and 2 μL test compounds were transferred to individual wells of a 96-well polypropylene assay plate and incubated for 15 to 30 min at room temperature with agitation. Tritiated radioligand was diluted to a concentration of 14 nM in assay buffer (phosphate buffered saline without Magnesium and Calcium, pH 7.4; GE Healthcare Life Sciences, Cat. No. SH30256.01) and then 50 μL of the solution were transferred to each well of the assay plate. To define total and non-specific binding, wells containing 1% DMSO and 20 μM N-ethylcarboxamidoadenosine (Tocris Bioscience, Cat. No. 1691) respectively, were also included. The wells of the assay plate were incubated at room temperature for 60 min with agitation, then filtered using a FilterMate Harvester® (Perkin Elmer) or similar equipment through a UniFilter-96@ PEI coated plate (Perkin Elmer Cat. No. 6005274 or 6005277). Filtering was achieved by aspirating the contents of the assay plate for 5 sec, then washing and aspirating the contents three times with ice-cooled wash buffer (assay buffer supplemented with 0.0025% Brij58) and allowing the vacuum manifold to dry the plate for 30 sec. The filter plate was incubated for at least 1 h at 55° C. and allowed to dry. The bottom of the filter plate was then sealed with backing tape. 40 μL Ultima Gold™ (Perkin Elmer, Cat. No. 6013329) was added to each well of the filter plate and the top of the plate was sealed with TopSeal-A PLUS® clear plate seal (Perkin Elmer, Cat. No. 6050185). The plates were then incubated for at least 20 min, and then the amount of radioactivity remaining in each well was determined using a TopCount® (Perkin Elmer) scintillation counter. After normalization to total and non-specific binding, the percent effect at each compound concentration was calculated. The plot of percent effect versus the log of compound concentration was analyzed electronically using a 4-parameter logistic fit based on the Levenberg-Marquardt algorithm to generate IC50 values.

[3] = target: T1, human A2A adenosine receptor; experiment: A2A binding affinity using radioligand binding, Method (A); settings: Method (A): filtration radioligand binding, [3H] SCH58261, membranes expressing human A2A
In short: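 Filtration binding used HEK293 or CHO membranes (5 μg/mL) preincubated with compound for 15–30 min at RT. [3H]SCH58261 (4 nM working solution) was added in Tris pH 7.4/10 mM MgCl2/0.005% Tween20 for 60 min at RT, with 1 μM ZM241385 defining nonspecific binding. Scintillation counts gave IC50 via 4-parameter logistic fit.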

T1 sequence (P29274 whole entry): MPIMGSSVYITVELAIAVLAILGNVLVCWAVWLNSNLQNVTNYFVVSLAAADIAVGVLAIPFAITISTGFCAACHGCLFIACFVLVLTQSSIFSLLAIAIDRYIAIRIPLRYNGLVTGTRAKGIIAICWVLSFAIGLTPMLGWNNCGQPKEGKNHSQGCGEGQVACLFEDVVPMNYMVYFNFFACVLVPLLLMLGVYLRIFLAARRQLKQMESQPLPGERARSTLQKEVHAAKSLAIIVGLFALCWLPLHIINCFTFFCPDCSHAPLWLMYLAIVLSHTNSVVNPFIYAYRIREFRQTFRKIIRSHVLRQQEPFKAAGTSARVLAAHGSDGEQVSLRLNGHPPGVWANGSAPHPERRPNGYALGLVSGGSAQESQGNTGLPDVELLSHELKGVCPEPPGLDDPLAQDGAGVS

SMILES | IC50 [1] | IC50 ([2]; value given with marker (A)) | IC50 [3] | IC50 ([2]; value given with marker (B))
COc1cccc2c1nc(N)n1nc(COCc3c(C)ccnc3C)nc21 [Example 4.5, 2-(((2,4-dimethylpyridin-3-yl)methoxy)methyl)-7-methoxy-[1,2,4]triazolo[1,5-c]quinazolin-5-amine] | 8.7 nM | – | – | –
COc1cccc2c1nc(N)n1nc(CSCc3ccc(F)cc3)nc21 [Example 1.3, 2-(((4-fluorobenzyl)thio)methyl)-7-methoxy-[1,2,4]triazolo[1,5-c]quinazolin-5-amine] | 7.3 nM | – | – | –
COc1cccc2c1nc(N)n1nc(CO[C@H](C)c3ccc(F)cc3)nc21 [Example 4.6, (R)-2-((1-(4-fluorophenyl)ethoxy)methyl)-7-methoxy-[1,2,4]triazolo[1,5-c]quinazolin-5-amine] | 8.3 nM | – | – | –
COc1cccc2c1nc(N)n1nc(COC(C)C)nc21 [Example 4.13, 2-(isopropoxymethyl)-7-methoxy-[1,2,4]triazolo[1,5-c]quinazolin-5-amine] | 5.7 nM | – | – | –
COc1cccc2c1nc(N)n1nc(CO[C@@H](C)c3ccc(F)cc3)nc21 [Example 4.7, (S)-2-((1-(4-fluorophenyl)ethoxy)methyl)-7-methoxy-[1,2,4]triazolo[1,5-c]quinazolin-5-amine] | 4.6 nM | – | – | –
COc1cccc2c1nc(N)n1nc(COCc3ccc(F)cc3)nc21 [Example 4.4, 2-(((4-fluorobenzyl)oxy)methyl)-7-methoxy-[1,2,4]triazolo[1,5-c]quinazolin-5-amine] | 4.7 nM | – | – | –
COc1cccc2c1nc(N)n1nc(CCCCl)nc21 [Example 1.1, 2-(3-chloropropyl)-7-methoxy-[1,2,4]triazolo[1,5-c]quinazolin-5-amine] | 15.5 nM | – | – | –
COc1cccc2c1nc(N)n1nc(CCCSc3ccc(C(F)(F)F)cc3)nc21 [Example 1.2, 7-methoxy-2-(3-((4-(trifluoromethyl)phenyl)thio)propyl)-[1,2,4]triazolo[1,5-c]quinazolin-5-amine] | 8.4 nM | – | – | –
CCC#CCOCc1nc2c3cccc(OC)c3nc(N)n2n1 [Example 4.9, 7-methoxy-2-((pent-2-yn-1-yloxy)methyl)-[1,2,4]triazolo[1,5-c]quinazolin-5-amine] | 6.1 nM | – | – | –
CCOCc1nc2c3cccc(OC)c3nc(N)n2n1 [Example 4.2, 2-(ethoxymethyl)-7-methoxy-[1,2,4]triazolo[1,5-c]quinazolin-5-amine] | 8.7 nM | – | – | –
COc1cccc2c1nc(N)n1nc(COCc3ccc(C(C)(C)O)cc3)nc21 [Example 4.15, 2-(4-(((5-amino-7-methoxy-[1,2,4]triazolo[1,5-c]quinazolin-2-yl)methoxy)methyl)phenyl)propan-2-ol] | – | 10 nM | 0.2 nM | –
CCS(=O)(=O)CCc1nc2c3cc(F)cc(OC)c3nc(N)n2n1 [Example 13.15, 2-(2-(ethylsulfonyl)ethyl)-9-fluoro-7-methoxy-[1,2,4]triazolo[1,5-c]quinazolin-5-amine] | – | 220 nM | 9.8 nM | –
COc1cc2nc(N)n3nc(CCS(N)(=O)=O)nc3c2cc1F [Example 6.5, 2-(5-amino-9-fluoro-8-methoxy-[1,2,4]triazolo-[1,5-c]quinazolin-2-yl)ethane-1-sulfonamide] | – | 113 nM | 107 nM | –
COc1cccc2c1nc(N)n1nc(CC(C)(C)O)nc21 [Example 18.2, 1-(5-amino-7-methoxy-[1,2,4]triazolo[1,5-c]quinazolin-2-yl)-2-methylpropan-2-ol] | – | – | 30.8 nM | 128 nM
COc1ccc2c(c1)nc(N)n1nc(CCS(=O)(=O)CC(C)C)nc21 [Example 13.8, 2-(2-(isobutylsulfonyl)ethyl)-8-methoxy-[1,2,4]triazolo-[1,5-c]quinazolin-5-amine] | – | 894 nM | 76.9 nM | –
COc1cccc2c1nc(N)n1nc(CCC3CCc4c(nnn4C(C)C)C3)nc21 (single isomer, unassigned) [Example 5.2B, (R or S)-2-(2-(1-isopropyl-4,5,6,7-tetrahydro-1H-benzo[d][1,2,3]triazol-5-yl)ethyl)-7-methoxy-[1,2,4]triazolo[1,5-c]quinazolin-5-amine] | – | 12 nM | 0.8 nM | –
COc1cc2nc(N)n3nc(CCS(=O)(=O)c4ccc(F)cc4)nc3c2cc1F [Example 13.13, 9-fluoro-2-(2-((4-fluorophenyl)sulfonyl)ethyl)-8-methoxy-[1,2,4]triazolo[1,5-c]quinazolin-5-amine] | – | 1040 nM | 57.7 nM | –
COc1cc2nc(N)n3nc(CCS(=O)(=O)c4ccccc4)nc3c2cc1F [Example 6.2, 9-fluoro-8-methoxy-2-(2-(phenylsulfonyl)ethyl)-[1,2,4]triazolo[1,5-c]quinazolin-5-amine] | – | 455 nM | 4.8 nM | –
COc1cc(F)cc2c1nc(N)n1nc(COCc3ccc(C(O)(C(F)(F)F)C(F)(F)F)cc3)nc21 [Example 4.16, 2-(4-(((5-amino-9-fluoro-7-methoxy-[1,2,4]triazolo[1,5-c]quinazolin-2-yl)methoxy)methyl)phenyl)-1,1,1,3,3,3-hexafluoropropan-2-ol] | – | 0.9 nM | 0.3 nM | –
COc1cccc2c1nc(N)n1nc(CC3CC3c3ccc(C(C)(C)N)cc3)nc21 (single isomer, unassigned) [Example 8.5B, 2-(((IR,2S or 1S,2R)-2-(4-(2-aminopropan-2-yl)phenyl)cyclopropyl)methyl)-7-methoxy-[1,2,4]triazolo[1,5-c]quinazolin-5-amine] | – | 3.3 nM | 1.3 nM | –
COc1cccc2c1nc(N)n1nc(CCS(C)(=O)=O)nc21 [Example 13.17, 7-methoxy-2-(2-(methylsulfonyl)ethyl)-[1,2,4]triazolo[1,5-c]quinazolin-5-amine] | – | 410 nM | 28.1 nM | –
COc1ccc2c(c1)nc(N)n1nc(CCS(=O)(=O)c3ccc(F)cc3)nc21 [Example 13.7, 2-(2-((4-fluorophenyl)sulfonyl)ethyl)-8-methoxy-[1,2,4]triazolo[1,5-c]quinazolin-5-amine] | – | 607 nM | 170 nM | –
COc1cc(F)cc2c1nc(N)n1nc(CCC3CCc4nn(C(C)C)cc4C3)nc21 (single isomer, unassigned) [Example 5.4A, (S or R)-9-fluoro-2-(2-(2-isopropyl-4,5,6,7-tetrahydro-2H-indazol-5-yl)ethyl)-7-methoxy-[1,2,4]triazolo[1,5-c]quinazolin-5-amine] | – | 9.4 nM | 1.9 nM | –
